Reference: US10093644B2, “3-[(Benzo[D][1,3]dioxolan-4-yl)-oxy]-3-arylpropylamine type compounds and applications thereof” (NHWA PHARMA. CORPORATION, priority 2014, dated 2018)
Several values for one entry are separate records, joined by “and”; a condition that tells them apart may be missing. Equal entries are not always repeated. Where two headings read alike, the source gives them in different places.

Key:
mice [1] = test: Mice tail suspension test (acquired despair experiment); format: in vivo; conditions: for immobilized time of mice tail suspension: i.g. (gavage); for ED50: Mus musculus, read-out: tail suspension ED50
mice [2] = test: Mice forced swimming test (acquired despair experiment); format: in vivo; conditions: for immobilized time of mice swimming: i.g. (gavage); for ED50: Mus musculus, read-out: swimming ED50
[3] = Therapeutic index evaluation (LD50/ED50); format: in vivo; conditions: for therapeutic index (swimming): LD50/ED50, swimming ED50; for therapeutic index (tail suspension): LD50/ED50, tail suspension ED50; for LD50: half lethal dose
[4] = Acid stability evaluation in diluted hydrochloric acid; format: physicochemical; conditions: 0.1 mol/L hydrochloric acid
Protocol: The compound according to the invention was incubated in diluted hydrochloric acid (0.1 mol/L) at 37° C. for 2 h to test the decomposition of the compound (shown as %) and the results were shown as follows.

SMILES | immobilized time of mice tail suspension (mice [1]; 5 mg/kg, oxalate form) [s] | immobilized time of mice tail suspension (mice [1]; 10 mg/kg, oxalate form) [s] | ED50 (mice [1]; half effective dose) [mg/kg] | immobilized time of mice swimming (mice [2]; 5 mg/kg, oxalate form) [s] | immobilized time of mice swimming (mice [2]; 10 mg/kg, oxalate form) [s] | ED50 (mice [2]; half effective dose) [mg/kg] | therapeutic index (swimming) [3] | therapeutic index (tail suspension) [3] | LD50 ([3]; in vivo, read-out: LD50) [mg/kg] | ratio of the compound after incubation in diluted hydrochloric acid at 37° C. for 2 h [4] [%] | immobilized time of mice tail suspension (mice [1]; 20 mg/kg) [s] | ED50 (mice [1]) [mg/kg] | immobilized time of mice swimming (mice [2]; 20 mg/kg) [s] | ED50 (mice [2]) [mg/kg] | tail suspension ED50 (mice [1]; half effective dose) [mg/kg] | swimming ED50 (mice [2]; half effective dose) [mg/kg] | LD50 [3] [mg/kg]
CNCCC(Oc1cccc2c1OCO2)c1ccccc1.O=C(O)C(=O)O (centres unmarked) [compound 2, 3-[(benzo[d][1,3]dioxolan-4-yl)-oxy]-N-methyl-3-phenylpropylamine oxalate] | 44.3 ± 34.5 | 8.2 ± 13.7 | 7.06 | 38.9 ± 34.5 | 28.6 ± 19.3 | 2 | 88.8 | 25.2 | 178 | 99 |  |  |  |  |  |  | 
Cc1cccc(C(CCN(C)C)Oc2cccc3c2OCO3)c1.O=C(O)C(=O)O (centres unmarked) [compound 13, 3-[(benzo[d][1,3]dioxolan-4-yl)-oxy]-3-(3-methylphenyl)-N,N-dimethylpropylamine oxalate] | 71.3 ± 32.7 | 29.8 ± 21.3 |  | 87.9 ± 55.6 | 60.2 ± 38.6 |  |  |  |  | 99 |  |  |  |  |  |  | 
CNCC[C@H](Oc1cccc2ccccc12)c1cccs1 [duloxetine, reference compound] |  | 34.7 ± 42.3 |  |  | 76.0 ± 57.8 |  | 98.8 and 98.9 | 82.1 | 489 | 18 | 17.8 ± 18.5 | 5.96 | 41.2 ± 33.3 | 4.94 |  |  | 
CNCCC(Oc1cccc2c1OCO2)c1cccs1 (centres unmarked) [ammuxetine, reference compound] |  |  |  |  |  |  | 68.9 | 45.7 |  | 44 |  |  |  |  | 3.89 | 2.58 | 177.8
CNCCC(Oc1cccc2c1OCO2)c1cccc(OC)c1.O=C(O)C(=O)O (centres unmarked) [compound 12, 3-[(benzo[d][1,3]dioxolan-4-yl)-oxy]-3-(3-methoxylphenyl)-N-methylpropylamine oxalate] | 64.1 ± 24.5 | 33.0 ± 15.6 | 8.57 | 92.0 ± 45.5 | 58.2 ± 45.3 | 5.28 | 60.7 | 37.4 | 320 | 99 |  |  |  |  |  |  | 
CNCCC(Oc1cccc2c1OCO2)c1ccc(F)cc1.O=C(O)C(=O)O (centres unmarked) [compound 4, 3-[(benzo[d][1,3]dioxolan-4-yl)-oxy]-3-(4-fluorophenyl)-N-methylpropylamine oxalate] | 21.4 ± 12.8 | 29.6 ± 13.1 |  | 74.1 ± 36.8 | 60.1 ± 42.2 |  |  |  |  | 99 |  |  |  |  |  |  | 
CN(C)CCC(Oc1cccc2c1OCO2)c1ccc(F)cc1.O=C(O)C(=O)O (centres unmarked) [compound 3, 3-[(benzo[d][1,3]dioxolan-4-yl)-oxy]-3-(4-fluorophenyl)-N,N-dimethylpropylamine oxalate] | 22.0 ± 28.2 | 9.2 ± 13.3 | 4.32 | 42.0 ± 56.1 | 31.0 ± 54.2 | 2.28 | 155.6 | 82.2 | 355 | 99 |  |  |  |  |  |  | 
